Where two headings read alike, the source gives them in different places.
What was measured:
COX-1 [1] = target: T1, COX-1 (Homo sapiens, UniProt P23219); assay: Human whole blood assay, COX-1 (clotting-induced TxB2 production); assay type: cell-based; parameters: platelets in whole blood contain a large amount of the COX-1 enzyme; endogenous in cells; host or cells: platelets in fresh human whole blood, clotting; settings: human whole blood, clotting-induced TxB2, 1 h; read-out: COX-1 (IC50 mM) HWB
Source text: (§1) As well, platelets in whole blood contain a large amount of the COX-1 enzyme. Immediately following blood clotting, platelets are activated through a thrombin-mediated mechanism. This reaction results in the production of thromboxane B2 (TxB2) via activation of COX-1. Thus, the effect of test compounds on TxB2 levels following blood clotting can be examined and used as an index for COX-1 activity. Therefore, the degree of selectivity by the test compound can be determined by measuring the levels of PGE2 after LPS induction (COX-2) and TxB2 following blood clotting (COX-1) in the same assay.
Fresh blood is collected into vacutainers containing no anticoagulants. […] The tubes are vortexed and incubated at 37° C. for 1 hour to allow blood to clot. At the end of incubation, serum is obtained by centrifugation (12,000×g for 5 min.). A 100 μL aliquot of serum is mixed with 400 μL of methanol for protein precipitation.

COX-1 [2] = target: T1, COX-1; assay: Assay of COX-1 activity from U937 cell microsomes (PGE2); assay type: biochemical; parameters: Assay of COX-1 Activity from U937 Cell Microsomes; endogenous in cells; host or cells: U937 cells, 100,000 x g microsomal pellet; settings: U-937 cell microsomes, 15 min preincubation; read-out: COX-1 (IC50 mM) U-937
Description: U 937 cells are pelleted by centrifugation at 500×g for 5 min and washed once with phosphate-buffered saline and repelleted. Cells are resuspended in homogenization buffer consisting of 0.1 M Tris-HCl, pH 7.4, 10 mM EDTA, […] leupeptin, 2 μg/ml soybean trypsin inhibitor, 2 μg/ml aprotinin and 1 mM phenyl methyl sulfonyl fluoride. The cell suspension is sonicated 4 times for 10 sec and is centrifuged at 10,000×g for 10 min at 4° C. The supernatant is centrifuged at 100,000×g for 1 hr at 4° C. The 100,000×g microsomal pellet is resuspended in 0.1 M Tris-HCl, pH 7.4, 10 mM EDTA to approximately 7 mg protein/ml and stored at -80° C.
Microsomal preparations are thawed immediately prior to use, subjected to a brief sonication, and then diluted to a protein concentration of 125 μg/ml in 0.1 M Tris-HCl buffer, pH 7.4 containing 10 mM EDTA, 0.5 mM phenol, 1 mM reduced glutathione and 1 μM hematin. Assays are performed in duplicate in a final volume of 250 μl. Initially, 5 μl of DMSO vehicle or drug in DMSO are added to 20 μl of 0.1 M Tris-HCl buffer, pH 7.4 containing 10 mM EDTA in wells of a 96-deepwell polypropylene titre plate. 200 μl of the microsomal preparation are then added and pre-incubated for 15 min at room temperature before addition of 25 μl of […] arachidonic acid in […] Tris-HCl and 10 mM EDTA, pH 7.4. Samples are incubated for 40 min at room temperature and the reaction is stopped by the addition of 25 μl of 1 N HCl. Samples are neutralized with 25 μl of 1 N NaOH prior to quantitation of PGE2 content by radioimmunoassay (Dupont-NEN or Amersham assay kits). Cyclooxygenase activity is defined as the difference between PGE2 levels in samples incubated in the presence of arachidonic acid and ethanol vehicle.
In the assay, inhibition is determined by measuring the amount of prostaglandin E2 (PGE2) synthesized in the presence of arachidonic acid, cyclooxygenase-1 or cyclooxygenase-2 and a putative inhibitor.

COX-2 [3] = target: T2, COX-2 (Homo sapiens, UniProt P35354); assay: cell-based; settings: human whole blood, LPS-induced PGE2, 24 h; read-out: COX-2 (IC50 mM) HWB
T2 sequence (P35354 18-604): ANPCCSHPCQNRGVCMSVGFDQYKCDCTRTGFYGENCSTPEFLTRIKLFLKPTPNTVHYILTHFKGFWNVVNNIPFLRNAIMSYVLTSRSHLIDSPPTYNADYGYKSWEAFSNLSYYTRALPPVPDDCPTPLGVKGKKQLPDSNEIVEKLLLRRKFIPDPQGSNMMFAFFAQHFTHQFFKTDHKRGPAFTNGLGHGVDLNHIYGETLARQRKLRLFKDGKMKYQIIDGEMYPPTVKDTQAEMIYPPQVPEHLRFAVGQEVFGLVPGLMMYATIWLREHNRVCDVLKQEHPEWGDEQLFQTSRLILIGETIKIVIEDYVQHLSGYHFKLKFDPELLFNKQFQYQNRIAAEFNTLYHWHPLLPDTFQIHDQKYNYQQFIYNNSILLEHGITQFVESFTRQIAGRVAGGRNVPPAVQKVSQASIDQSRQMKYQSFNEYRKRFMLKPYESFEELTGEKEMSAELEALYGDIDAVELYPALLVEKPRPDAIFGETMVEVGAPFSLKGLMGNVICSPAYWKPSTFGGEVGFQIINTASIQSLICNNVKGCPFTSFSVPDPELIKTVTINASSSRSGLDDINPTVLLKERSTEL
Source text: as §1
Fresh blood is collected in heparinized tubes by venipuncture from both male and female volunteers. The subjects have no apparent inflammatory conditions and have not taken any NSAIDs for at least 7 days prior to blood collection. Plasma is immediately obtained from a 2mL blood aliquot to use as blank (basal levels of PGE2). The remaining blood is incubated with LPS (100 μg/ml final concentration, Sigma Chem, #L-2630 from E. coli; diluted in 0.1% BSA (Phosphate buffered saline) for 5 minutes at room temperature. Five hundred […] aliquots of blood are incubated with either 2 μL of vehicle (DMSO) or 2 μL of a test compound at final concentrations varying from 10 nM to 30 μM for 24 hours at 37° C. At the end of the incubation, the blood is centrifuged at 12,000×g for 5 minutes to obtain plasma. A 100 μL aliquot of plasma is mixed with 400 μL of methanol for protein precipitation. The supernatant is obtained and is assayed for PGE2 using a radioimmunoassay kit (Amersham, RPA#530) after conversion of PGE2 to its methyl oximate derivative according to the manufacturer's procedure. […]

COX-2 [4] = target: T2, COX-2; assay: cell-based; settings: CHO[hCOX-2] cells, 10 μM AA, 15 min preincubation; read-out: COX-2 (IC50 mM) CHO
Description: For cyclooxygenase assays, CHO[hCOX-1] cells from suspension cultures and CHO[hCOX-2] cells prepared by trypsinization of adherent cultures are harvested by centrifugation (300×g, 10 min) and washed once in HBSS containing 15 mM HEPES, pH 7.4, and resuspended in HBSS, 15 mM HEPES, pH 7.4, at a cell concentration of 1.5×10^6 cells/ml. Drugs to be tested are dissolved in DMSO to 66.7-fold the highest test drug concentration. […] Cells (0.3×10^6 cells in 200 μl) are preincubated with 3 μl of the test drug or DMSO vehicle for 15 min at 37° C. Working solutions of peroxide-free AA (5.5 μM and 110 μM AA for the CHO [hCOX-1] and CHO [COX-2] assays, respectively) are prepared by a 10-fold dilution of a concentrated AA solution in ethanol into HBSS containing 15 mM HEPES, pH 7.4. Cells are then challenged in the presence or absence of drug with the AA/HBSS solution to yield a final concentration of 0.5 μM AA in the CHO[hCOX-1] assay and a final concentration of 10 μM AA in the CHO[hCOX-2] assay. The reaction is terminated by the addition of 10 μl 1 N HCl followed by neutralization with 20 μl of 0.5 N NaOH. The samples are centrifuged at 300 ×g at 4° C. for 10 min, and an aliquot of the clarified supernatant is appropriately diluted for the determination of PGE2 levels using an enzyme-linked immunoassay for PGE2 (Correlate PGE2 enzyme immunoassay kit, Assay Designs, Inc.). Cyclooxygenase activity in the absence of test compounds is determined as the difference in PGE2 levels of cells challenged with arachidonic acid versus the PGE2 levels in cells mock-challenged with ethanol vehicle. Inhibition of PGE2 synthesis by test compounds is calculated as a percentage of the activity in the presence of drug versus the activity in the positive control samples.

T1 sequence (P23219 24-599): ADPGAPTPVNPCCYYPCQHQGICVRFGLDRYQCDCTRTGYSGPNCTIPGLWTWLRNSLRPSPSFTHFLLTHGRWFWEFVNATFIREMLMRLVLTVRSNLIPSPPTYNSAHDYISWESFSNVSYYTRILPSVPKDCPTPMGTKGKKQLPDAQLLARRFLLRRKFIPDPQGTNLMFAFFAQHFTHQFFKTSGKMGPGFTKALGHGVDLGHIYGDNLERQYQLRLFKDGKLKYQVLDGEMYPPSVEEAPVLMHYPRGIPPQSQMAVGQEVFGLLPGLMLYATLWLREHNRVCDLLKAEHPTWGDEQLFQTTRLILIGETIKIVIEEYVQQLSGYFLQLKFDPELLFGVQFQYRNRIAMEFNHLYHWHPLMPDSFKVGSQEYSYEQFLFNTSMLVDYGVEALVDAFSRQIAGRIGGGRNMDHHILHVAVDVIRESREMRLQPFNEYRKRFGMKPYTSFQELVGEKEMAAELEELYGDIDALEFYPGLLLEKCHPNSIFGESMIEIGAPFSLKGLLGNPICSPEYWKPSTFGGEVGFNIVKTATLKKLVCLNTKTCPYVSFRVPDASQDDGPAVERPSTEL

SMILES	IC50 (COX-1 [1])	IC50 (COX-1 [2])	IC50 (COX-2 [3])	IC50 (COX-2 [4])
C[C@]1(O)CCC[C@H]1Oc1ncc(C(F)(F)F)cc1-c1ccc(S(C)(=O)=O)cc1 (single isomer, unassigned) [Example 31, (+)-2-(cis-2-Hydroxy-2-methylcyclopentyloxy)-3-(4-methylsulfonyl)phenyl-5-trifluoromethylpyridine]	> 0.1 mM	0.037 mM	–	–
CC(C)(O)CSc1ncc(C(F)(F)F)cc1-c1ccc(S(C)(=O)=O)cc1 [Example 43, 2-(2-Hydroxy-2-methyl-1-thiopropyloxy)-3-(4-methylsulfonyl)phenyl-5-trifluoromethylpyridine]	0.039 mM	0.003 to 0.01 mM	–	–
CC(C)(O)/C=C\c1ncc(Cl)cc1-c1ccc(S(C)(=O)=O)cc1 [Example 51, 5-Chloro-2-((Z)-3-Hydroxy-3-methyl-1-butenyl)-3-(4-methylsulfonyl)phenylpyridine]	0.01 mM	0.001 to 0.003 mM	0.0008 mM	0.01 µM
COCCOc1ncc(C(F)(F)F)cc1-c1ccc(S(C)(=O)=O)cc1 [Example 2, 2-(2-Methoxy)ethoxy-3-(4-methylsulfonyl)phenyl-5-trifluoromethylpyridine]	–	0.001 to 0.003 mM	0.0013 mM	0.02 µM
CC[C@]1(O)CCC[C@H]1Oc1ncc(C(F)(F)F)cc1-c1ccc(S(C)(=O)=O)cc1 (relative stereo) [Example 36, 2-(cis-2-Hydroxy-2-ethylcyclopentyloxy)-3-(4-methylsulfonyl)phenyl-5-trifluoromethylpyridine]	–	> 0.01 mM	0.0031 mM	0.17 µM
CC(C)(O)COc1ncc(Cl)cc1-c1ccc(S(C)(=O)=O)cc1 [Example 5, 5-Chloro-2-(2-hydroxy-2-methyl-1-propyloxy)-3-(4-methylsulfonyl)phenylpyridine]	–	> 0.1 mM	0.0036 mM	0.11 µM
C[C@]1(O)CCC[C@H]1Oc1ncc(Cl)cc1-c1ccc(S(C)(=O)=O)cc1 (relative stereo) [Example 34, 5-Chloro-2-(cis-2-hydroxy-2-methylcyclopentyloxy)-3-(4-methylsulfonyl)phenylpyridine]	–	> 0.01 mM	0.0017 mM	0.1 µM
C[C@@]1(O)CCCC[C@@H]1Oc1ncc(C(F)(F)F)cc1-c1ccc(S(C)(=O)=O)cc1 (relative stereo) [Example 37, 2-(cis-2-Hydroxy-2-methylcyclohexyloxy)-3-(4-methylsulfonyl)phenyl-5-trifluoromethylpyridine]	–	> 0.01 mM	0.0065 mM	0.57 µM
CCC(C)(O)COc1ncc(C(F)(F)F)cc1-c1ccc(S(C)(=O)=O)cc1 (stereo not drawn) [Example 7, 2-(2-Hydroxy-2-methyl-1-butyloxy)-3-(4-methylsulfonyl)phenyl-5-trifluoromethylpyridine]	–	> 0.01 mM	0.001 mM	0.13 µM
COC(C)(C)COc1ncc(C(F)(F)F)cc1-c1ccc(S(C)(=O)=O)cc1 [Example 6, 2-(2-Methoxy-2-methyl-1-propyloxy)-3-(4-methylsulfonyl)phenyl-5-trifluoromethylpyridine]	–	0.003 to 0.01 mM	< 0.0004 mM	0.03 µM
C[C@H](O)[C@@H](C)Oc1ncc(C(F)(F)F)cc1-c1ccc(S(C)(=O)=O)cc1 [Example 25, 2-((2R,3S)-3-Hydroxy-2-butyloxy)-3-(4-methylsulfonyl)phenyl-5-trifluoromethylpyridine]	–	> 0.01 mM	0.0036 mM	0.06 µM
C[C@H](CCO)Oc1ncc(C(F)(F)F)cc1-c1ccc(S(C)(=O)=O)cc1 [Example 41, 2-((2R)-4-Hydroxy-2-butyloxy)-3-(4-methylsulfonyl)phenyl-5-trifluoromethylpyridine]	–	> 0.01 mM	0.0004 mM	0.04 µM
CCC(O)(CC)[C@H](C)Oc1ncc(C(F)(F)F)cc1-c1ccc(S(C)(=O)=O)cc1 [Example 20, 2-((2S)-3-Ethyl-3-hydroxy-2-pentyloxy)-3-(4-methylsulfonyl)phenyl-5-trifluoromethylpyridine]	–	> 0.01 mM	0.0016 mM	0.4 µM
CS(=O)(=O)c1ccc(-c2cc(C(F)(F)F)cnc2OCC2(O)CCCC2)cc1 [Example 13, 2-(1-Hydroxycyclopentyl)methoxy-3-(4-methylsulfonyl)phenyl-5-trifluoromethylpyridine]	0.096 mM	0.01 mM	–	–
C[C@]1(O)CCC[C@H]1Oc1ncc(C(F)(F)F)cc1-c1ccc(S(C)(=O)=O)cc1 (single isomer, unassigned) [Example 32, (-)-2-(cis-2-Hydroxy-2-methylcyclopentyloxy)-3-(4-methylsulfonyl)phenyl-5-trifluoromethylpyridine]	> 0.1 mM	> 0.01 mM	–	–
CS(=O)(=O)c1ccc(-c2cc(C(F)(F)F)cnc2OCC2(O)CCC2)cc1 [Example 12, 2-(1-Hydroxycyclobutyl)methoxy-3-(4-methylsulfonyl)phenyl-5-trifluoromethylpyridine]	–	> 0.01 mM	0.0013 mM	0.05 µM
C[C@@H](Oc1ncc(Cl)cc1-c1ccc(S(C)(=O)=O)cc1)C(C)(C)O [Example 18, 5-Chloro-2-((2R)-3-Hydroxy-3-methyl-2-butyloxy)-3-(4-methylsulfonyl)phenylpyridine]	–	> 0.01 mM	0.0004 mM	0.08 µM
CCC(Oc1ncc(C(F)(F)F)cc1-c1ccc(S(C)(=O)=O)cc1)C(C)(C)O (stereo not drawn) [Example 19, 2-(4-Hydroxy-4-methyl-3-pentyloxy)-3-(4-methylsulfonyl)phenyl-5-trifluoromethylpyridine]	–	> 0.01 mM	0.0005 mM	0.32 µM

From patent US6046217A, “2,3,5-trisubstituted pyridines as inhibitors of cyclooxygenase-2” (Merck Frosst Canada & Co., priority 1998, dated 2000)
